In patent US20180369186A1, “METHOD FOR MODULATING AUTOPHAGY AND APPLICATIONS THEREOF” (JAWAHARLAL NEHRU CENTRE FOR ADVANCED SCIENTIFIC RESEARCH, priority 2015, published 2018):

What was measured:
[1] = test system: α-synuclein toxicity; assay: S. cerevisiae α-synuclein toxicity model, growth assay; type: cell-based; details: 50 μM
Description: To screen small molecule library LOPAC1280 in S. cerevisiae SNCA toxicity model, working plates containing 50 μM drugs in 1.5% DMSO (190 compounds/plate) are prepared in a 384 well format. WT SNCA-GFP with or without small molecules and untreated WT GFP are grown under optimized conditions (80 μl, 30° C. and 420 rpm) for 36 h in a plate reader (Varioskan Flash, Thermo Scientific) in duplicates with automatic absorbance (A600) recording every 20 min. Growth curves of untreated WT GFP and WT SNCA-GFP strains are plotted and mid to late exponential phase time point of untreated WT GFP strain is chosen as reference for data analysis. Its corresponding time point of untreated and drug treated WT SNCA-GFP strains are plotted separately in a box plot. Small molecules that rescued the growth lag by ≥3 SD units of untreated WT SNCA-GFP strain are considered as ‘Hits’.
(§1) Growth assays: In a 384 well plate, appropriate yeast strains are seeded (A600˜0.07) with and without drugs and incubated (80 μl, 30° C. and 420 rpm) in a multiplate reader (Varioskan Flash, Thermo Scientific) for 48 h with automatic absorbance (A600) recording every 20 min. Growth curves are plotted and analyzed using GraphPad Prism.
Induction of α-synuclein-EGFP aggregates: To induce α-synuclein-EGFP aggregates, the corresponding strains are inoculated in SD-Ura medium, Secondary culture is inoculated from primary inoculum and incubated till A600 reaches 0.8/ml. Cells are washed twice with sterile water and aggregates are induced by adding SG-Ura for 12-16 h.
To screen small molecule library LOPAC^1280 in S. cerevisiae α-synuclein toxicity model, working plates containing 50 μM drugs (small molecule) in 1.5% DMSO (190 compounds/plate) are prepared in a 384 well format. WT α-synuclein-EGFP with and without small molecules and untreated WT EGFP are grown under optimized conditions (80 μl, 30° C. and 420 rpm) for 36 h in a plate reader (Varioskan Flash, Thermo Scientific) in duplicates with automatic absorbance (A600) recording every 20 min.
Growth curves of untreated WT EGFP and WI α-synuclein-EGFP strains are plotted and mid to late exponential phase time point of untreated WT EGFP strain is chosen as reference for data analysis. Its corresponding time point of untreated and drug treated WT α-synuclein-EGFP strains are plotted separately in a box plot.
(§2) Appropriate yeast strains are seeded (A600 ˜0.07) with or without drugs in a 384-well plate and incubated (420 rpm, 30° C. and 80 μl) in a multiplate reader (Varioskan Flash, Thermo Scientific) for 48 h that records absorbance (A600) automatically for every 20 min. Growth curves are plotted using GraphPad Prism.

[2] = test system: yeast cells; assay: Yeast growth assay (WT EGFP cells); type: cell-based, S. cerevisiae; details: 50 μM
Description: as §1, §2

[3] = test system: SH-SY5Y cells overexpressing EGFP-α-synuclein; assay: Cell viability of SH-SY5Y cells overexpressing α-synuclein (CellTitre-Glo); type: cell-based, human
Description: SH-SY5Y cells are seeded on a 96 well plate and transfected with GFP-SNCA only and/or is cotransfected with shRNA GSK3B and GFP-SNCA. To cells, the drugs were added (24 h) after 48 h of transfection. Then, the cell viability was measured using the CellTitre-Glo® (Promega) and luminescence was measured using Varioskan Flash (Thermo Scientific).
SH-SY5Y cells are seeded onto tissue culture treated 96 well plate and then transfected with EGFP-α-synuclein only and/or co-transfected with siRNA. To cells, appropriate drugs are added (24 h) after 48 h of transfection. Using luminescence-based CellTitre-Glo® (Promega) kit, the cell viability is assayed using automated microtitre plate reader Varioskan Flash (Thermo Scientific) […].

## COc1cc(C=C(C#N)C(=O)Nc2nnc(C(F)(F)F)s2)ccc1OCc1ccc(C(F)(F)F)cc1C(F)(F)F [XCT 790, 3-[4-(2,4-Bis-trifluoromethylbenzyloxy)-3-methoxyphenyl]-2-cyano-N-(5-trifluoromethyl-1,3,4-thiadiazol-2-yl)acrylamide]
[1]; WT α-syn cells
  rescue of growth lag, treated vs untreated: ~3.2 fold
[2]
  effect on growth of yeast cells: does not affect the yeast growth
[3]; α-syn over expressed cells, 5 μM
  increase in cell viability, untreated vs treated: ~4 fold
[3]; α-syn over expressed cells, with 3-MA
  cell viability, XCT 790 vs XCT 790+3-MA: ~4 fold

## O=C1Nc2cc(Br)ccc2/C1=C1/Nc2ccccc2/C1=N\O [6-Bio, (2′Z,3′E)-6-Bromoindirubin-3′-oxime]
[1]; WT α-synuclein-EGFP strain
  rescue of growth lag due to α-synuclein toxicity: rescues the growth lag
[1]; atg1Δ, atg5Δ, atg8Δ, atg11Δ and atg15Δ
  rescue of growth lag in autophagy mutants expressing α-synuclein: fails to rescue growth lag
[2]
  effect on growth of yeast cells: does not affect the growth of yeast cells
[3]; SNCA over expressed for 72 h
  cell viability of SNCA over expressed SH-SY5Y cells: significantly increased
[3]; shRNA GSK3B silenced, SNCA over expressed
  cytoprotection when GSK3B expression is silenced: marginal cytoprotection
